Here are results for 26 compounds from patent US20250122155A1, “NOVEL INDOLE DERIVATIVE, PHARMACEUTICAL COMPOSITION COMPRISING SAME, AND USE THEREOF” (MITOIMMUNE THERAPEUTICS INC., priority 2021, published 2025).

Each structure is given as a SMILES string. Where two headings read alike, the source gives them in different places.

In data set [1] the test system is H9C2 cells. The data set can be described thus: Protective effect on heart cells against t-BHP (LDH release). It counts as cell-based. To be noted: H9C2, t-BHP 400 μM, 2 hours, read-out: EC50 (μM), Cell Protection Effect against t-BHP in Heart Cells. The method, then: In order to identify the protective effect with regard to heart cells, H9C2 cells were divided into 96-well plates by 1.5×10^4, and cultured for 24 hours. The respective wells were treated with compounds of the examples 3× serial diluted to final concentrations of 30, 10, 3, 1, 0.3, 0.1, 0.03 and 0.01 μM, then incubated for 15 to 20 minutes. After treating with t-BHP with a final concentration of 400 μM, incubation was performed for 2 hours. To confirm the protective effect of each compound, a Cytotoxicity LDH assay kit [Dojindo; CK12] was used to measure the degree of extracellular secretion of LDH. After 2-hour treatment of the cells with t-BHP was completed, 100 μL each of the supernatant in which the cells were placed was collected and moved to a new 96-well plate. 100 μL/well of the assay buffer included in the kit (same amount as the sample) was added, followed by wrapping with foil and reacting for 30 minutes at room temperature. Observing the change of color in the sample, 50 μL/well of stop solution was added, then an iD3 spectrometer was used to measure absorbance at 490 nm and calculate the EC50 values. The EC50 of the compounds of the examples is preferably no more than 1.0 μM, and more preferably no more than 0.3 μM.

Data set [2] is described as follows: Plasma and brain drug concentration after oral administration (HPLC-MS/MS). It counts as in vivo. The method, then:
[…] parameters can be represented as maximum concentration in plasma (Cmax), time taken until maximum concentration in plasma (Tmax), area under the plasma concentration-time curve (AUClast and AUCinf), and half-life (t1/2), and the like.
The compound of Example 2 was orally administered to ICR mice at a dose of 10 mg/kg, and drug concentration in mouse plasma was measured using HPLC-MS/MS spectroscopy at 0.5, 1, 2, 4, 8 and 24 hours. The mouse brains were removed at 2 or 24 hours, and drug concentration in the brain was measured using HPLC-MS/MS spectroscopy. The area under the plasma concentration v. time curve (AUCinf) was measured to be […], and at 2 hours after administration drug concentration in plasma was 398 ng/mL and brain drug concentration was measured at 683 ng/mL. […] Further, at 24 hours after administration, for Example 2, drug concentration in plasma was measured to be 5.6 ng/mL and drug concentration in the brain was measured at 11.4 ng/mL. With the brain-plasma drug concentration ratio at 2.04, drug exposure in the brain was still high.
The Comparative Example compound was orally administered to ICR mice at a dose of 10 mg/kg, and drug concentration in mouse plasma was measured using HPLC-MS/MS spectroscopy at 0.5, 1, 2, 4, 8 and 24 hours. The mouse brains were removed at 2 or 24 hours, and drug concentration in the brain was measured using HPLC-MS/MS spectroscopy.

[3] abbreviates: ICR mouse, oral 10 mg/kg, 2 hr, 10 mg/kg.
Where [4] appears, read: ICR mouse, oral 10 mg/kg, 24 hr, 10 mg/kg.

For the compound `COCCOCc1cc(NC2CCCC2)c2[nH]c(-c3ccc(P(C)(C)=O)cc3)cc2c1` [Example 56, (4-(7-(cyclopentylamino)-5-((2-methoxyethoxy)methyl)-1H-indol-2-yl)phenyl)dimethylphosphine oxide], the EC50 in data set [1] is at most 0.3 µM. Turning to `COCCOCc1cc(NC2CCCC2)c2[nH]cc(C)c2c1` [Example 49, N-cyclopentyl-5-(2-methoxyethoxymethyl)-3-methyl-1H-indol-7-amine], in data set [1], the EC50 was 0.3 to 1 µM. As for `COCCOCc1cc(NC(C)C(F)(F)F)c2[nH]c(-c3ccccc3)cc2c1` (centres unmarked) [Example 25, 5-(2-methoxyethoxymethyl)-2-phenyl-N-(2,2,2-trifluoro-1-methyl-ethyl)-1H-indol-7-amine], in data set [1], the EC50 was at most 0.3 µM.

Turning to `COCCCOCc1cc(NC2COC2)c2[nH]c(-c3ccccc3)cc2c1` [Example 62, 5-((3-methoxypropoxy)methyl)-N-(oxetan-3-yl)-2-phenyl-1H-indol-7-amine], in data set [1], the EC50 is at most 0.3 µM. For the compound `COCCOCc1cc(NCC2CC2)c2[nH]c(-c3ccccc3)cc2c1` [Example 21], the EC50 in data set [1] was at most 0.3 µM.

Take `CCCNc1cc(COCCOC)cc2cc(-c3ccccc3)[nH]c12` [Example 16, 5-(2-methoxyethoxymethyl)-2-phenyl-N-propyl-1H-indol-7-amine]: in data set [1], the EC50 is at most 0.3 µM.

Turning to `COCCOCc1cc(NC2CCCC2)c2[nH]cc(-c3ccccc3)c2c1` [Example 51, N-cyclopentyl-5-(2-methoxyethoxymethyl)-3-phenyl-1H-indol-7-amine], the EC50 in data set [1] was at most 0.3 µM. For `COCCOCc1cc(N2CCCCC2)c2[nH]c(-c3ccccc3)cc2c1` [Example 68, 5-((2-methoxyethoxy)methyl)-2-phenyl-7-(piperidin-1-yl)-1H-indole], the EC50 in data set [1] is over 1 µM.

As to `COCCOCc1cc(NC2CCN(C(=O)Nc3cc(Cl)cc(Cl)c3)CC2)c2[nH]c(-c3ccccc3)cc2c1` [Example 42, N-(3,5-dichlorophenyl)-4-[[5-(2-methoxyethoxymethyl)-2-phenyl-1H-indol-7-yl]amino]piperidine-1-carboxamide], the EC50 in data set [1] was 0.3 to 1 µM. On the same count and under the same terms, next, `COCCOCc1cc(NCC(C)C)c2[nH]c(-c3ccccc3)cc2c1` [Example 15, N-isobutyl-5-(2-methoxyethoxymethyl)-2-phenyl-1H-indol-7-amine]: at most 0.3 µM; `COCCOCc1cc(NCc2cccs2)c2[nH]c(-c3ccccc3)cc2c1` [Example 43, 5-(2-methoxyethoxymethyl)-2-phenyl-N-(2-thienylmethyl)-1H-indol-7-amine]: 0.3 to 1 µM; `COCCOCc1cc(NCC(C)(C)C)c2[nH]c(-c3ccccc3)cc2c1` [Example 11, N-(2,2-dimethylpropyl)-5-(2-methoxyethoxymethyl)-2-phenyl-1H-indol-7-amine]: at most 0.3 µM. Still for that read-out and setting: next, `COCCOCc1cc(NC2CCC(C)(O)CC2)c2[nH]c(-c3ccccc3)cc2c1` (single isomer, unassigned) [Example 70-2, 4-((5-((2-methoxyethoxy)methyl)-2-phenyl-1H-indol-7-yl)amino)-1-methylcyclohexane-1-ol]: at most 0.3 µM.

On to `OCc1cc(NC2CCCC2)c2[nH]c(-c3ccccc3)cc2c1` [Comparative Example, reference compound], for which the “drug concentration in brain” value is listed as 95 ng/mL in data set [2] (setting [3]) and “no drug concentration was measured” in data set [2] (setting [4]). The “drug concentration in plasma” value in data set [2] (setting [3]) was 1122 ng/mL; in data set [2] (setting [4]), “no drug concentration was measured”. In data set [2] (ICR mouse, oral 10 mg/kg, plasma, read-out: area under the plasma concentration v. time curve (AUCinf)), the AUC(0-inf) worked out at 5460 ng·h/mL. Besides, the concentration at 2 h amounted to 95 ng/mL in data set [2] (ICR, mouse, brain, po, 10 mg/kg, 2 hr, read-out: drug concentration in brain) and 1120 ng/mL in data set [2] (ICR, mouse, plasma, po, 10 mg/kg, 2 hr, read-out: drug concentration in plasma). The concentration at 24 h in data set [2] (ICR, mouse, brain, po, 10 mg/kg, 24 hr, read-out: drug concentration in brain) came out at 0 ng/mL; in data set [2] (ICR, mouse, plasma, po, 10 mg/kg, 24 hr, read-out: drug concentration in plasma), 0 ng/mL. Further, in data set [2] (ICR, mouse, plasma, po, 10 mg/kg, 0.5 hr), the concentration at 0.5 h was 1640 ng/mL. In addition, in data set [2] (ICR, mouse, plasma, po, 10 mg/kg, 1 hr), the concentration at 1 h is 2110 ng/mL. Further, in data set [2] (ICR, mouse, plasma, po, 10 mg/kg, 4 hr), the concentration at 4 h is 389 ng/mL. In data set [2] (ICR, mouse, plasma, po, 10 mg/kg, 8 hr), the concentration at 8 h amounted to 50.8 ng/mL. For the same compound, the AUC(0-t) in data set [2] (ICR, mouse, plasma, po, 10 mg/kg, plasma, read-out: area under the plasma concentration v. time curve (AUClast)) is 5360 ng·h/mL; in data set [2] (ICR, mouse, plasma, po, 10 mg/kg, read-out: AUClast, plasma), 5360 ng·h/mL. The Kp at 2 h in data set [2] (brain/plasma, ICR mouse, oral 10 mg/kg, 2 hr, read-out: brain-plasma drug concentration ratio (B/P ratio)) is 0.08. As to `COCCOCc1cc(NC2CCN(C)CC2)c2[nH]c(-c3ccccc3)cc2c1` [Example 34, 5-(2-methoxyethoxymethyl)-N-(1-methyl-4-piperidyl)-2-phenyl-1H-indol-7-amine], the EC50 in data set [1] was at most 0.3 µM. On the same count and under the same terms, next, `COCCOCc1cc(NC2CCC2)c2c(c1)cc(-c1ccccc1)n2C` [Example 10, N-cyclobutyl-5-(2-methoxyethoxymethyl)-1-methyl-2-phenyl-indol-7-amine]: 0.3 to 1 µM; `COCCCOCc1cc(NC2CCOCC2)c2[nH]c(-c3ccccc3)cc2c1` [Example 63, 5-((3-methoxypropoxy)methyl)-2-phenyl-N-(tetrahydro-2H-pyran-4-yl)-1H-indol-7-amine]: 0.3 to 1 µM; `COCCOCc1cc(NC2CCCCC2)c2[nH]c(-c3ccccc3)cc2c1` [Example 13, N-cyclohexyl-5-(2-methoxyethoxymethyl)-2-phenyl-1H-indol-7-amine]: at most 0.3 µM.

Turning to `COCCCOCc1cc(NC2CCCC2)c2[nH]c(-c3ccccc3)cc2c1` [Example 61, N-cyclopentyl-5-((3-methoxypropoxy)methyl)-2-phenyl-1H-indol-7-amine], the EC50 in data set [1] was at most 0.3 µM. Consider `COCCOCc1cc(NCc2ccccc2)c2[nH]c(-c3ccccc3)cc2c1` [Example 28, N-benzyl-5-(2-methoxyethoxymethyl)-2-phenyl-1H-indol-7-amine], for which the EC50 in data set [1] was at most 0.3 µM. On the same count and under the same terms, then `COCCOCc1cc(NC2CCOCC2)c2c(c1)cc(-c1ccccc1)n2C` [Example 53, 5-((2-methoxyethoxy)methyl)-1-methyl-2-phenyl-N-(tetrahydro-2H-pyran-4-yl)-1H-indol-7-amine], with 0.3 to 1 µM; and `COCCOCc1cc(N(C2CCCC2)C2CCCC2)c2[nH]c(-c3ccccc3)cc2c1` [Example 3, N,N-dicyclopentyl-5-(2-methoxyethoxymethyl)-2-phenyl-1H-indol-7-amine], with at most 0.3 µM.

`COCCOCc1cc(/N=C(/C)C(F)(F)F)c2[nH]c(-c3ccccc3)cc2c1` [Example 24, (E,Z)-1,1,1-trifluoro-N-[5-(2-methoxyethoxymethyl)-2-phenyl-1H-indol-7-yl]propane-2-imine]: the EC50 in data set [1] is at most 0.3 µM. `COCCOCc1cc(NC2CCOCC2)c2[nH]c(-c3ccc(C)cc3)cc2c1` [Example 60, 5-((2-methoxyethoxy)methyl)-N-(tetrahydro-2H-pyran-4-yl)-2-(p-tolyl)-1H-indol-7-amine]: in data set [1], the EC50 is at most 0.3 µM. The same measure, in the same setting: next, `COCCOCc1cc(NC2CC[S+]([O-])CC2)c2[nH]c(-c3ccccc3)cc2c1` (centres unmarked) [Example 33, 5-(2-methoxyethoxymethyl)-N-(1-oxothian-4-yl)-2-phenyl-1H-indol-7-amine]: at most 0.3 µM; `COCCOCCc1cc(NC2CCOCC2)c2[nH]c(-c3ccccc3)cc2c1` [Example 67, 5-(2-(2-methoxyethoxy)ethyl)-2-phenyl-N-(tetrahydro-2H-pyran-4-yl)-1H-indole-7-amine]: at most 0.3 µM.
